Assay results published in the supplement of paper PMC10307832.

The cell lines below were run with CC1=C(N=C(N=C1N)[C@H](CC(=O)N)NC[C@@H](C(=O)N)N)C(=O)N[C@@H]([C@H](C2=CN=CN2)OC3C(C(C(C(O3)CO)O)O)OC4C(C(C(C(O4)CO)O)OC(=O)N)O)C(=O)N[C@H](C)[C@H]([C@H](C)C(=O)N[C@@H]([C@@H](C)O)C(=O)NCCC5=NC(=CS5)C6=NC(=CS6)C(=O)NCCC[S+](C)C)O [Bleomycin] + Cc1nc(Nc2ncc(C(=O)Nc3c(C)cccc3Cl)s2)cc(N2CCN(CCO)CC2)n1 [Dasatinib] (partner 0.075 µM) (assay: relative viability (nuclei count vs DMSO), 5 days (fraction); higher = more cells survive). Conditions: first compound 0.01 µM; main component drawn.
Summary of the method: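 Lung cancer cell lines in 1536-well plates were dosed by pin tool the day after seeding, either with one drug alone or with a fixed anchor-drug dose plus five library-drug doses (not always all listed) in √10 steps. After 5 days, cells were fixed and their nuclei stained in one step (final 0.05% Triton X-100, 1% formaldehyde, 1 ug/ml Hoechst), then counted on 4× images. Relative viability is the nuclei count in treated wells divided by that in vehicle wells. Values are medians of duplicate plates.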
Work on HOP-62 yielded a relative viability of 0.49. In the case of SW 900, the relative viability was 0.48. LU99A showed a relative viability of 0.366. In the case of BEN, the relative viability was 0.327. Cell Line HARA has a relative viability of 0.297. Work on NCI-H441 yielded a relative viability of 0.424. LCLC-97TM1 was tested, and the relative viability was 0.553. NCI-H2009 showed a relative viability of 0.298. Work on A-427 yielded a relative viability of 0.53. Work on NCI-H460 yielded a relative viability of 0.362. Work on NCI-H727 yielded a relative viability of 0.466. NCI-H1734 showed a relative viability of 0.357. NCI-H520 showed a relative viability of 0.222. For NCI-H2405, the relative viability was 0.206. SW 1573 gave a relative viability of 0.253. For NCI-H1395, the relative viability was 0.377. Work on 201T yielded a relative viability of 0.527. Work on NCI-H1915 yielded a relative viability of 0.247. HCC-827 was tested, and the relative viability was 0.228. LXF-289 was tested, and the relative viability was 0.19. Work on NCI-H2347 yielded a relative viability of 0.258. With NCI-H650 the relative viability was 0.389. Cell Line CAL-12T has a relative viability of 0.246. Work on NCI-H1651 yielded a relative viability of 0.344. EPLC-272H gave a relative viability of 0.35. Work on NCI-H23 yielded a relative viability of 0.535. NCI-H1355 showed a relative viability of 0.668. NCI-H322M showed a relative viability of 0.241. Work on NCI-H1437 yielded a relative viability of 0.388.

Same assay, conditions: first compound 0.03162 µM; main component drawn
In the case of HOP-62, the relative viability was 0.479. Work on SW 900 yielded a relative viability of 0.418. LU99A gave a relative viability of 0.505. BEN showed a relative viability of 0.342. Work on HARA yielded a relative viability of 0.322. In the case of NCI-H441, the relative viability was 0.709. LCLC-97TM1 was tested, and the relative viability was 0.576. Cell Line NCI-H2009 has a relative viability of 0.297. Cell Line A-427 has a relative viability of 0.56. NCI-H460 gave a relative viability of 0.318. Cell Line NCI-H727 has a relative viability of 0.345. NCI-H1734 was tested, and the relative viability was 0.312. For NCI-H520, the relative viability was 0.217. NCI-H2405 gave a relative viability of 0.212. In the case of SW 1573, the relative viability was 0.289. In the case of NCI-H1395, the relative viability was 0.413. Work on 201T yielded a relative viability of 0.529. With NCI-H1915 the relative viability was 0.258. HCC-827 gave a relative viability of 0.24. Cell Line LXF-289 has a relative viability of 0.228. NCI-H2347 showed a relative viability of 0.295. With NCI-H650 the relative viability was 0.438. With CAL-12T the relative viability was 0.259. Work on NCI-H1651 yielded a relative viability of 0.361. Work on EPLC-272H yielded a relative viability of 0.36. Cell Line NCI-H23 has a relative viability of 0.552. NCI-H1355 was tested, and the relative viability was 0.661. For NCI-H322M, the relative viability was 0.26. Cell Line NCI-H1437 has a relative viability of 0.422.

Same assay, conditions: first compound 0.1 µM; main component drawn
In the case of HOP-62, the relative viability was 0.377. SW 900 gave a relative viability of 0.241. In the case of LU99A, the relative viability was 0.367. For BEN, the relative viability was 0.341. Cell Line HARA has a relative viability of 0.251. NCI-H441 showed a relative viability of 0.515. Cell Line LCLC-97TM1 has a relative viability of 0.619. With NCI-H2009 the relative viability was 0.311. Cell Line A-427 has a relative viability of 0.496. Cell Line NCI-H460 has a relative viability of 0.244. For NCI-H727, the relative viability was 0.325. For NCI-H1734, the relative viability was 0.348. Cell Line NCI-H520 has a relative viability of 0.234. With NCI-H2405 the relative viability was 0.208. SW 1573 showed a relative viability of 0.434. Work on NCI-H1395 yielded a relative viability of 0.379. In the case of 201T, the relative viability was 0.546. With NCI-H1915 the relative viability was 0.181. HCC-827 gave a relative viability of 0.338. LXF-289 showed a relative viability of 0.197. For NCI-H2347, the relative viability was 0.266. NCI-H650 showed a relative viability of 0.432. Work on CAL-12T yielded a relative viability of 0.164. NCI-H1651 gave a relative viability of 0.384. In the case of EPLC-272H, the relative viability was 0.272. Work on NCI-H23 yielded a relative viability of 0.321. NCI-H1355 gave a relative viability of 0.84. NCI-H322M showed a relative viability of 0.262. NCI-H1437 gave a relative viability of 0.39.

Same assay, conditions: first compound 0.3162 µM; main component drawn
Cell Line HOP-62 has a relative viability of 0.165. SW 900 was tested, and the relative viability was 0.147. With LU99A the relative viability was 0.205. Cell Line BEN has a relative viability of 0.273. HARA was tested, and the relative viability was 0.186. NCI-H441 showed a relative viability of 0.296. In the case of LCLC-97TM1, the relative viability was 0.208. For NCI-H2009, the relative viability was 0.21. Cell Line A-427 has a relative viability of 0.137. NCI-H460 showed a relative viability of 0.0443. With NCI-H1734 the relative viability was 0.145. NCI-H520 was tested, and the relative viability was 0.198. NCI-H2405 gave a relative viability of 0.181. With SW 1573 the relative viability was 0.174. NCI-H1395 gave a relative viability of 0.412. Work on 201T yielded a relative viability of 0.444. For NCI-H1915, the relative viability was 0.0914. In the case of HCC-827, the relative viability was 0.245. LXF-289 gave a relative viability of 0.077. Cell Line NCI-H2347 has a relative viability of 0.169. With NCI-H650 the relative viability was 0.289. CAL-12T showed a relative viability of 0.0878. In the case of NCI-H1651, the relative viability was 0.187. EPLC-272H showed a relative viability of 0.149. For NCI-H23, the relative viability was 0.148. For NCI-H1355, the relative viability was 0.252. NCI-H322M was tested, and the relative viability was 0.243. With NCI-H1437 the relative viability was 0.164.

Same assay, conditions: first compound 1 µM; main component drawn
HOP-62 gave a relative viability of 0.106. Work on SW 900 yielded a relative viability of 0.134. In the case of LU99A, the relative viability was 0.125. Cell Line BEN has a relative viability of 0.249. In the case of HARA, the relative viability was 0.104. For NCI-H441, the relative viability was 0.311. For LCLC-97TM1, the relative viability was 0.123. In the case of NCI-H2009, the relative viability was 0.196. A-427 showed a relative viability of 0.144. NCI-H460 gave a relative viability of 0.037. For NCI-H727, the relative viability was 0.293. NCI-H1734 showed a relative viability of 0.154. NCI-H520 gave a relative viability of 0.154. NCI-H2405 was tested, and the relative viability was 0.166. For SW 1573, the relative viability was 0.118. NCI-H1395 was tested, and the relative viability was 0.381. Work on 201T yielded a relative viability of 0.463. NCI-H1915 was tested, and the relative viability was 0.0984. Work on HCC-827 yielded a relative viability of 0.225. LXF-289 gave a relative viability of 0.0555. NCI-H2347 showed a relative viability of 0.23. In the case of NCI-H650, the relative viability was 0.212. Work on CAL-12T yielded a relative viability of 0.12. In the case of NCI-H1651, the relative viability was 0.144. EPLC-272H was tested, and the relative viability was 0.0954. NCI-H23 showed a relative viability of 0.167. NCI-H1355 was tested, and the relative viability was 0.192. NCI-H322M gave a relative viability of 0.263. Cell Line NCI-H1437 has a relative viability of 0.23.
